Test results as given in PMC9860980, “Pharmacokinetics and Pharmacodynamics (PK/PD) of Corallopyronin A against Methicillin-Resistant Staphylococcus aureus” (Pharmaceutics, 2022).
Like-named read-outs stand apart in the source and are kept apart here.

Tests used:
[1] = Biodistribution of CorA to organs/tissues of CD-1 mice (LC-MS/MS); assay type: in vivo
Procedure: (§1) For pharmacokinetic (PK) experiments, 6–8-week-old outbred female CD-1 mice (Charles River, Germany) were used. CorA was dissolved in PEG400/phosphate-buffered saline (PBS) (80:20 (v/v)). CorA was administered once daily at 60 mg/kg intraperitoneally (IP), 100 mg/kg IP, 100 mg/kg subcutaneously (SC) and 100 mg/kg perorally (PO). Moreover, CorA was administered at 30 mg/kg IP twice a day (BID) (administration time points t = 0 and 6 h after first dose). Animals (n = 3 per time point) receiving either 60 mg/kg IP or 100 mg/kg IP were euthanized at 10, 15, 30, 60 and 180 min after administration. Animals (n = 3 per time point) receiving 30 mg/kg IP BID were euthanized at 0.167, 0.25, 0.5, 1, 3, 5.75, 6.167, 6.25, 6.5, 7 and 9 h after first administration. Animals (n = 3 per time point) receiving 100 mg/kg SC or 100 mg/kg PO were euthanized at 0.25, 1, 2, 4 and 8 h after administration. At every time point blood was removed from the heart, collected into tubes coated with 0.5 M ethylenediaminetetraacetic acid (EDTA), immediately spun down at 15,870× g for 10 min at 4 °C and the resultant plasma transferred into a new tube. Furthermore, at every time point heart, lung, brain, liver, spleen, kidneys, and thigh muscles were removed and frozen in liquid nitrogen. For animals receiving 100 mg/kg PO also rectum (without feces), pharynx, skin, vaginal tract, subcutaneous fat tissue, visceral fat tissue and tibiae were removed and frozen in liquid nitrogen. Before removing the vaginal tract, a vaginal flush was performed.
(§2) Caffeine was used as an internal standard.

[2] = Pharmacokinetics of CorA in plasma of CD-1 mice; assay type: in vivo; conditions: for Tmax / CL/F / Cmax / MRT / half-life / Vd/F / AUC0-t: CD-1 mice; for Vd/F: read-out: Vz/F_obs
Procedure: as §1
CorA plasma concentrations were quantified by HPLC-DAD with an Alliance e2695 separation module and a 2998 PDA detector (Waters, Eschborn, Germany). For the analysis, blood samples were centrifuged for 10 min at 4 °C and 3220× g. The generated plasma (20 µL) was mixed 1:3 with ice-cold acetonitrile, vortexed for 10 s and centrifuged for 25 min at 4 °C and 11,000× g. The supernatant was transferred into a HPLC vial and a sample volume of 5 µL was injected and quantified at a wavelength of 300 nm. A Waters XBridge® Shield RP18 column (3.5 μm, 2.1 × 100 mm, 130 A) was used at 30 °C. Two solvent gradients comprising mobile phase A (acetonitrile/water 5/95 with 5 mM ammonium acetate and 40 μL acetic acid per liter) and mobile phase B (acetonitrile/water 95/5 with 5 mM ammonium acetate and 40 μL acetic acid per liter) with a gradient from 70%A/30%B to 20%A/80%B, stepwise within 30 min and a flow rate of 0.3 mL/min were used. Data were analyzed by Empower 3 software and quantified using an external reference standard. No major matrix effects were seen when mixing ACN containing CorA with plasma.
as §2

[3] = tested on: MRSA; conditions: against MRSA; cited from earlier work
[4] = female, mouse, plasma, 30 mg/kg IP (BID), mean ± SD
[5] = female, mouse, plasma, 60 mg/kg IP, mean ± SD
[6] = female, mouse, plasma, 100 mg/kg IP, mean ± SD
[7] = female, mouse, plasma, 100 mg/kg PO

In the case of C/C=C/C/C=C(\C)C(O)CC/C(C)=C/C=C(\C)C(=O)c1c(O)cc([C@H](C)CC/C=C/NC(=O)OC)oc1=O (some centres unmarked) [CorA, Corallopyronin A], the “CorA in vaginal flush” value ([1]; 100 mg/kg PO) is reported as “not found”, the “time initial peak concentrations in tissue are above the MIC” value ([1]; IP dosing) is reported as 2 to 3 h and the AUC ([1]; brain, 30 mg/kg IP) is reported as 0.05 µg·h/g. It also gave an AUC ([1]; brain, 60 mg/kg IP) of 0.10 µg·h/g, an AUC ([1]; brain, 100 mg/kg IP) of 0.10 µg·h/g and an AUC ([1]; brain, 100 mg/kg SC) of 0.24 µg·h/g. The “time tissue concentration exceeds the in vitro MIC against MRSA” value ([1]; female, CD-1, mouse, in vivo, sc, 100 mg/kg) was “more than 9 h”, the Cmax ([1]; female, CD-1, mouse, thigh muscle, thigh, 30 mg/kg IP) was 100 ng/g and the Cmax ([1]; female, CD-1, mouse, thigh muscle, thigh, 60 mg/kg IP) was 300 ng/g. The Cmax ([1]; female, CD-1, mouse, thigh muscle, thigh, 100 mg/kg IP) was 700 ng/g, the Tmax ([1]; female, CD-1, mouse, 100 mg/kg PO, thigh, heart, kidney, spleen, lung, liver, fat, rectum, pharynx, vaginal tract, skin, tibia, read-out: time of peak concentration in the investigated tissues) was 0.25 to 0.5 h and the Cmax ([1]; female, CD-1, mouse, brain, 30 mg/kg IP) was 40 ng/g. It also gave a Cmax ([1]; female, CD-1, mouse, brain, 60 mg/kg IP) of 70 ng/g, a Cmax ([1]; female, CD-1, mouse, brain, 100 mg/kg IP) of 100 ng/g and a Cmax ([1]; female, CD-1, mouse, brain, 100 mg/kg SC) of 150 ng/g. The Cmax ([1]; female, CD-1, mouse, heart, 30 mg/kg IP) was 1100 ng/g, the Cmax ([1]; female, CD-1, mouse, heart, 60 mg/kg IP) was 1800 ng/g and the Cmax ([1]; female, CD-1, mouse, heart, 100 mg/kg IP) was 3100 ng/g. The Cmax ([1]; female, CD-1, mouse, heart, 100 mg/kg SC) was 1480 ng/g, the Cmax ([1]; female, CD-1, mouse, kidney, 30 mg/kg IP) was 700 ng/g and the Cmax ([1]; female, CD-1, mouse, kidney, 60 mg/kg IP) was 1200 ng/g. It also gave a Cmax ([1]; female, CD-1, mouse, kidney, 100 mg/kg IP) of 1800 ng/g, a Cmax ([1]; female, CD-1, mouse, kidney, 100 mg/kg SC) of 1760 ng/g and a Cmax ([1]; female, CD-1, mouse, liver, 30 mg/kg IP) of 310 ng/g. The Cmax ([1]; female, CD-1, mouse, liver, 60 mg/kg IP) was 430 ng/g, the Cmax ([1]; female, CD-1, mouse, liver, 100 mg/kg IP) was 610 ng/g and the Cmax ([1]; female, CD-1, mouse, liver, 100 mg/kg SC) was 2300 ng/g. It also gave a Cmax ([1]; female, CD-1, mouse, lung, 30 mg/kg IP) of 1500 ng/g, a Cmax ([1]; female, CD-1, mouse, lung, 60 mg/kg IP) of 3100 ng/g and a Cmax ([1]; female, CD-1, mouse, lung, 100 mg/kg IP) of 4800 ng/g. It also gave a Cmax ([1]; female, CD-1, mouse, lung, 100 mg/kg SC) of 1270 ng/g, a Cmax ([1]; female, CD-1, mouse, spleen, 30 mg/kg IP) of 1400 ng/g and a Cmax ([1]; female, CD-1, mouse, spleen, 60 mg/kg IP) of 2100 ng/g. The Cmax ([1]; female, CD-1, mouse, spleen, 100 mg/kg IP) was 4900 ng/g, the Cmax ([1]; female, CD-1, mouse, spleen, 100 mg/kg SC) was 600 ng/g and the AUC ([1]; heart, 30 mg/kg IP) was 1.08 µg·h/g. For the same molecule, the AUC ([1]; heart, 60 mg/kg IP) was 1.83 µg·h/g, the AUC ([1]; heart, 100 mg/kg IP) was 2.10 µg·h/g and the AUC ([1]; heart, 100 mg/kg SC) was 3.53 µg·h/g. For the same molecule, the AUC ([1]; kidney, 30 mg/kg IP) was 0.49 µg·h/g, the AUC ([1]; kidney, 60 mg/kg IP) was 0.95 µg·h/g and the AUC ([1]; kidney, 100 mg/kg IP) was 1.01 µg·h/g. It also gave an AUC ([1]; kidney, 100 mg/kg SC) of 5.61 µg·h/g, an AUC ([1]; liver, 30 mg/kg IP) of 0.40 µg·h/g and an AUC ([1]; liver, 60 mg/kg IP) of 0.57 µg·h/g. The AUC ([1]; liver, 100 mg/kg IP) was 0.59 µg·h/g, the AUC ([1]; liver, 100 mg/kg SC) was 12.44 µg·h/g and the AUC ([1]; lung, 30 mg/kg IP) was 1.2 µg·h/g. For the same molecule, the AUC ([1]; lung, 60 mg/kg IP) was 3.56 µg·h/g, the AUC ([1]; lung, 100 mg/kg IP) was 2.67 µg·h/g and the AUC ([1]; lung, 100 mg/kg SC) was 3.85 µg·h/g. For the same molecule, the “time CorA levels above the MIC” value ([1]; lung, 100 mg/kg SC) was ~ 4 h, the “time CorA levels exceed the in vitro MIC” value ([1]; lung, all three doses administered IP (30, 60, 100 mg/kg)) was “around 3 h” and the AUC ([1]; spleen, 30 mg/kg IP) was 0.77 µg·h/g. For the same molecule, the AUC ([1]; spleen, 60 mg/kg IP) was 1.34 µg·h/g, the AUC ([1]; spleen, 100 mg/kg IP) was 2.55 µg·h/g and the AUC ([1]; spleen, 100 mg/kg SC) was 1.4 µg·h/g. For the same molecule, the AUC ([1]; thigh, 30 mg/kg IP) was 0.19 µg·h/g, the “time CorA levels exceed the MIC” value ([1]; thigh, 30 mg/kg IP) was “about one hour” and the AUC ([1]; thigh, 60 mg/kg IP) was 0.49 µg·h/g. The “time CorA levels above the MIC” value ([1]; thigh, 60 mg/kg IP) was “around 3 h”, the AUC ([1]; thigh, 100 mg/kg IP) was 0.60 µg·h/g and the “time CorA levels above the MIC” value ([1]; thigh, 100 mg/kg IP) was “around 3 h”. For the same molecule, the “peak concentrations in thigh above the in vitro determined MIC” value ([1]; thigh, 100 mg/kg IP, MIC 0.125 µg/mL) was 3–5 ×, the “CorA levels in thigh tissue” value ([1]; thigh, 100 mg/kg SC) was “no CorA levels were detected” and the “time CorA was found in plasma after dosing” value ([2]; 100 mg/kg PO) was “up to 8 h”. For the same molecule, the “exposure in plasma lower compared to the same dose administered IP or SC” value ([2]; 100 mg/kg PO vs 100 mg/kg IP or SC) was 3- to 4 fold, the Tmax ([2]; female, CD-1, mouse, plasma, ip, 30 mg/kg, 30 mg/kg IP (BID), mean ± SD) was 0.19 h and the Tmax ([2]; female, CD-1, mouse, plasma, ip, 60 mg/kg, 60 mg/kg IP, mean ± SD) was 0.19 h. The Tmax ([2]; female, CD-1, mouse, plasma, ip, 100 mg/kg, 100 mg/kg IP, mean ± SD) was 0.19 h, the Tmax ([2]; female, CD-1, mouse, plasma, po, 100 mg/kg, 100 mg/kg PO) was 0.5 ± 0.4 h and the Tmax ([2]; female, CD-1, mouse, plasma, sc, 100 mg/kg, 100 mg/kg SC, mean ± SD) was 3.33 ± 1.2 h. For the same molecule, the concentration at 8 h ([2]; female, CD-1, mouse, plasma, subcutaneous, 100 mg/kg SC, 8 h after dosing) was over 10 µg/mL, the CL/F [2, 4] was 0.89 mL/min/kg and the Cmax [2, 4] was 194 ± 15.6 µg/mL. For the same molecule, the MRT [2, 4] was 3.61 ± 0.6 h, the half-life [2, 4] was 2.33 ± 0.3 h and the Vd/F [2, 4] was 0.18 L/kg. For the same molecule, the CL/F [2, 5] was 1.8 mL/min/kg, the Cmax [2, 5] was 416 ± 39.1 µg/mL and the MRT [2, 5] was 1.55 ± 0.2 h. It also gave a half-life [2, 5] of 1.1 ± 0.2 h, a Vd/F [2, 5] of 0.17 L/kg and a CL/F [2, 6] of 3.43 ± 0.4 mL/min/kg. The Cmax [2, 6] was 349 ± 12.4 µg/mL, the MRT [2, 6] was 2.51 ± 1 h and the half-life [2, 6] was 1.87 ± 0.8 h. For the same molecule, the Vd/F [2, 6] was 0.54 ± 0.2 L/kg, the CL/F [2, 7] was 16.4 ± 4 mL/min/kg and the Cmax [2, 7] was 89.8 ± 43.8 µg/mL. For the same molecule, the MRT [2, 7] was 3.13 ± 0.2 h, the half-life [2, 7] was 2.88 ± 0.6 h and the AUC0-t ([2]; female, mouse, plasma, 100 mg/kg PO, read-out: AUC 0-t) was 94 ± 27.1 µg·h/mL. It also gave a Vd/F [2, 7] of 4.09 ± 1.3 L/kg, a Cmax ([2]; female, mouse, plasma, 100 mg/kg SC, mean ± SD) of 107 ± 59.2 µg/mL and an AUC0-t ([2]; plasma, 30 mg/kg IP (BID), mean ± SD) of 303.88 ± 21.9 µg·h/mL. For the same molecule, the AUC0-t ([2]; plasma, 60 mg/kg IP, mean ± SD) was 463.87 ± 18.8 µg·h/mL, the AUC0-t ([2]; plasma, 100 mg/kg IP, mean ± SD) was 339.53 ± 28.4 µg·h/mL and the “Cmax lower compared to the same dose administered IP” value ([2]; plasma, 100 mg/kg PO vs 100 mg/kg IP) was 3- to 4 fold. The AUC0-t ([2]; plasma, 100 mg/kg SC, mean ± SD) was 459.32 ± 238.2 µg·h/mL and the “in vitro minimal inhibitory concentration (MIC)” value [3] was 0.125 µg/mL.
